The subject of series [1] is mouse T lymphocytes. Nature of the series: T-cell proliferation assay (ionomycin plus PMA induced T-cell stimulation, tritiated thymidine uptake). Format: cell-based, C57B1/6 mice. As to the method:
The principle of this assay is to measure the proliferation of mouse T lymphocytes stimulated with the combination of ionomycin plus PMA. […] Cells were pelleted by centrifugation at 1500 rpm for 8 minutes. Contaminating red cells were removed by treating the pellet with ammonium chloride lysing buffer (GIBCO) for 2 minutes at 4°C. Cold medium was added and cells were again centrifuged at 1500 rpm for 8 minutes. T lymphocytes were then isolated by separation of the cell suspension on nylon wool columns as follows: Nylon wool columns were prepared by packing approximately 4 grams of washed and dried nylon wool into 20 ml plastic syringes. The columns were sterilized by autoclaving at 250°F for 30 minutes. Nylon wool columns were wetted with warm (37°C) culture medium and rinsed with the same medium. Washed spleen cells resuspended in warm medium were slowly applied to the nylon wool. The columns were then incubated in an upright position at 37°C for 1 hour. Non-adherent T lymphocytes were eluted from the columns with warm culture medium and the cell suspensions were spun as above. […] The cell suspension was immediately distributed into 96 well flat-bottom microculture plates (Costar) at 200 μl/well. […] The proliferation of T lymphocytes was assessed by measurement of tritiated thymidine incorporation. After 44 hours of culturing, the cells were pulse-labelled with 2 μCi/well of tritiated thymidine (NEN, Cambridge, MA). After another 4 hours of incubation, cultures were harvested on glass fiber filters using a multiple sample harvester. Radioactivity of filter discs corresponding to individual wells was measured by standard liquid scintillation counting methods (Betacounter). […]

Series [2] is described as follows: Physical characteristics of the fermentation product. Format: physicochemical. Conditions: qualitative, solvent methanol. From the text:
White amorphous powder • 2. […] Molecular weight of 763, as determined by electron impact mass spectroscopy and is consistent with the assigned molecular structure in Figure 1.

Where “and” joins values, the source holds several entries; their conditions need not be identical. Equal entries are not always repeated. Where two headings read alike, the source gives them in different places.

As a reminder, the inhibition is the percentage by which the read-out fell short of the control.

With `C=CC[C@@H]1/C=C(\C)C[C@H](C)C[C@H](OC)[C@H]2O[C@@](O)(C(=O)C(=O)N3CCCC[C@H]3C(=O)O[C@H](/C(C)=C/[C@@H]3CC[C@@H](O)[C@H](OC)C3)[C@H](C)[C@@H](O)CC1=O)[C@H](C)C[C@@H]2OC` [L-679,934, reference compound], the inhibition at 0.001 µg/mL worked out at 99% in series [1] (Mus musculus, T-lymphocyte, Table 1, L-679,934 1 ng/ml alone (0 ng/ml L-686,292)) and 97.1% in series [1] (Mus musculus, T-lymphocyte, Table 2, L-679,934 (1 ng/ml) alone (0 ng/ml L-686,292)). Further, the IC50 in series [1] (Mus musculus, T-lymphocyte, read-out: IC₅₀ for L-679,934-mediated inhibition) was 0.00032 µg/mL and 0.4 nM.
Take `CC[C@@H]1/C=C(\C)C[C@H](C)C[C@H](O)[C@H]2O[C@@](O)(C(=O)C(=O)N3CCCC[C@H]3C(=O)O[C@H](/C(C)=C/[C@@H]3CC[C@@H](O)[C@H](O)C3)[C@H](C)[C@@H](O)CC1=O)[C@H](C)C[C@@H]2OC` [L-686,292]: the Solubility entry in series [2] is listed as “Solubility in methanol”. In addition, the inhibition at 0.031 µg/mL in series [1] (Mus musculus, T-lymphocyte, 48 h, Table 1, L-686,292 only, 31 ng/ml, harvest at 48 hours) was found to be 0%. Further, in series [1] (Mus musculus, T-lymphocyte, 48 h, Table 1, L-686,292 only, 63 ng/ml, harvest at 48 hours), the inhibition at 0.063 µg/mL came out at 0%. Also, in series [1] (Mus musculus, T-lymphocyte, 48 h, Table 1, L-686,292 only, 125 ng/ml, harvest at 48 hours), the inhibition at 0.125 µg/mL came to 0%. In addition, the inhibition at 0.25 µg/mL in series [1] (Mus musculus, T-lymphocyte, 48 h, Table 1, L-686,292 only, 250 ng/ml, harvest at 48 hours) amounted to 0%. The inhibition at 0.5 µg/mL in series [1] (Mus musculus, T-lymphocyte, 48 h, Table 1, L-686,292 only, 500 ng/ml, harvest at 48 hours) came out at 0%. Also, the inhibition at 1 µg/mL in series [1] (Mus musculus, T-lymphocyte, 48 h, Table 1, L-686,292 only, 1000 ng/ml, harvest at 48 hours) was 0%. The inhibition at 0.001 µg/mL in series [1] (Mus musculus, T-lymphocyte, Table 1, L-686,292 31 ng/ml & L-679,934 (1 ng/ml), read-out: % Inhibition) was determined as 99%; in series [1] (Mus musculus, T-lymphocyte, Table 1, L-686,292 63 ng/ml & L-679,934 (1 ng/ml), read-out: % Inhibition), 99%; in series [1] (Mus musculus, T-lymphocyte, Table 1, L-686,292 125 ng/ml & L-679,934 (1 ng/ml), read-out: % Inhibition) it was 96%; in series [1] (Mus musculus, T-lymphocyte, Table 1, L-686,292 250 ng/ml & L-679,934 (1 ng/ml), read-out: % Inhibition) it was 65%; in series [1] (Mus musculus, T-lymphocyte, Table 1, L-686,292 500 ng/ml & L-679,934 (1 ng/ml), read-out: % Inhibition), 3%; in series [1] (Mus musculus, T-lymphocyte, Table 1, L-686,292 1000 ng/ml & L-679,934 (1 ng/ml), read-out: % Inhibition), 0%. Also, the inhibition at 0.001 µg/mL in series [1] (Mus musculus, T-lymphocyte, Table 2, L-686,292 31.3 ng/ml + inhibitor L-679,934 (1 ng/ml), read-out: % Inhibition) stood at 93.4%; in series [1] (Mus musculus, T-lymphocyte, Table 2, L-686,292 62.5 ng/ml + inhibitor L-679,934 (1 ng/ml), read-out: % Inhibition) it was 65.7%; in series [1] (Mus musculus, T-lymphocyte, Table 2, L-686,292 125 ng/ml + inhibitor L-679,934 (1 ng/ml), read-out: % Inhibition) it was 0%; in series [1] (Mus musculus, T-lymphocyte, Table 2, L-686,292 1000 ng/ml + inhibitor L-679,934 (1 ng/ml), read-out: % Inhibition), 4.7%. In addition, the IC50 is 0.25 µg/mL and 328 nM in series [1] (Mus musculus, T-lymphocyte, reversal of inhibition by L-679,934 (1 ng/ml), read-out: IC₅₀ of reversal); 100 to 400 nM in series [1] (Mus musculus, T-lymphocyte, reversal of inhibition by L-679,934, 'generally in the range', read-out: IC₅₀ of reversal, general range). In series [1] (qualitative statement), the “L-679,934 antagonist activity” value was “exhibits reversal of L-679,934 mediated inhibition of T-cell activation”.

The values are drawn from patent EP0403242A1, “New L-683,590 microbial transformation product” (Merck & Co., Inc., priority 1989, dated 1990).
